Source: patent US10532038B2, “Beta-3 adrenoceptor agonists for the treatment of pulmonary hypertension” (FUNDACIÓN CENTRO NACIONAL DE INVESTIGACIONES …, priority 2012, dated 2020)

Key:
animals with acute PH = assay: Single dose in acute PH due to pulmonary embolism; type: in vivo, pigs; conditions: 5 μg/Kg endovenous, 10 minutes after administration
Text: In 10 2 month old healthy pigs (weighing ≈30 kg) anesthetized, intubated and ventilated with 40% FiO2, while continuously monitoring blood pressure, heart rate (HR), oxygen saturation as well as PAP and repeated measurements of cardiac output (CO) by means of thermodilution using a Swan-Ganz catheter, acute PH was generated by means of pulmonary embolization with a suspension of microspheres (Sephadex G50 coarse; Pharmacia Biotech; Freiburg, Germany) by femoral vein route. The dose necessary for causing an increase of mean PAP≥40 mmHg to remain stable for 10 minutes was administered. At that time the animals were randomized to receive specific β3 agonist BRL37344 (5 μg/Kg) or physiological saline (vehicle).
(§1) Cardiac output was quantified by the thermodilution technique.
(§2) A value of P<0.05 was considered significant.

[1] = test system: post-capillary chronic PH model; assay: Single dose in chronic post-capillary PH
Text: The post-capillary PH model was generated by means of the non-restrictive surgical cerclage of the main pulmonary vein in 4 week old piglets (weighing about 10 kg). This vein drains the blood from both lower lung lobes, forming about 80% of the pulmonary mass. With analgesia and general anesthesia and under cardiac monitoring and orotraqueal intubation, the right external jugular vein and common carotid artery were located by means of surgical dissection. The Swan-Ganz catheter was introduced through the venous access to continuously monitor PAP, pulmonary capillary pressure and cardiac output. The arterial route also served to monitor systemic blood pressure during the surgical intervention. By means of right lateral thoracotomy through the fifth intercostal space, non-restrictive cerclage of the main pulmonary vein was performed by means of placing a 5 mm wide polyester band around the vessel fitting the at-rest diameter of the pulmonary venous confluence right before it enters the left atrium. […] It is therefore a progressive PH model (severity intensifies throughout follow-up). […] At the end of follow-up, the animals were euthanized and their hearts extracted for histological analysis.
(§3) The hemodynamic study was conducted by means of right heart catheterization strictly using the same methodology as in humans. Once PH was generated, the following parameters were quantified basally and after the administration of the β3 agonist, in duplicate: PAP, pulmonary capillary pressure and right atrial pressure. Cardiac output was quantified by the thermodilution technique. Five measurements were taken, and the mean of 3 measurements was considered after excluding the highest and lowest determinations. Left ventricular end-diastolic pressure was determined by means of placement of a pig-tail catheter inside the left ventricle through the femoral artery. Pulmonary vascular resistances were calculated as the difference between mean PAP and left ventricular end-diastolic pressure divided by the cardiac output and expressed in Wood units.
The effect of the drug was evaluated 10 minutes after administration in acute PH and 20 minutes after administration in chronic PH.
The continuous variables are expressed as mean±SD and qualitative variables are expressed as frequency (%). The comparison between the intervention groups with respect to changes in the variables, calculated as the difference between the post-treatment and pre-treatment value (both in acute PH and chronic PH), was performed by means of the Wilcoxon test. The evaluation of the effect of a single dose of β3 agonist on the hemodynamic parameters in chronic PH was performed by means of the Student's T test or Wilcoxon test for paired data, according to the distribution of the variables. A value of P<0.05 was considered significant.

[2] = test system: pre-capillary chronic PH model; assay: Single dose in chronic pre-capillary PH; type: in vivo, Large-White pigs, Sus scrofa
Text: The pre-capillary PH model was generated by means of pulmonary arterial embolization with synthetic microspheres 300 microns in diameter (Sephadex G50 coarse; Pharmacia Biotech; Freiburg, Germany), a variant of a model previously described (Bernd W. Bottiger, MD; Johann Motsch, MD; Joachim Dorsam, MD; UlfMieck, MD; Andre Gries, MD, forg Weimann, MD; and Eike Martin, MD. Inhaled Nitric Oxide Selectively Decreases Pulmonary Artery Pressure and Pulmonary Vascular Resistance Following Acute Massive Pulmonary Microembolism in Piglets. CHEST1996; 110:1041-47).
The protocol was initiated in 3 month old Large-White pigs, Sus scrofa species (weighing ≈40 kg). After general anesthesia and analgesia and under cardiac monitoring and orotracheal intubation, the femoral vein and artery were cannulated by means of percutaneous puncture in the cardiac hemodynamics laboratory. Through the venous access, a Swan-Ganz catheter was placed in one of the main branches of the pulmonary artery (PA), which was connected to a monitor to continuously record PAP and to quantify pulmonary capillary pressure and cardiac output. The arterial route allowed continuously recording systemic blood pressure. Venous access served to administer the microspheres towards the pulmonary arterial circulation. A solution was prepared with 500 mg of microspheres in 200 ml of physiological saline and the amount necessary to reach mean sustained PAP>40 mmHg in about 20 minutes was administered. This method was repeated weekly (3-5 embolizations) until generating chronic PH (mean PAP>25 mmHg at rest). Two-month follow-up was conducted on the animals. […] The histopathological lesions observed in the lung reproduce those shown in arterial PH or chronic thromboembolic PH in humans: arterial intima proliferation with media hypertrophy and perivascular fibrosis, vascular occlusions, and complex lesions such as vascular aneurisms or plexiform lesions.
as §1, §2

[3] = test system: animals with post-capillary chronic PH; assay: Chronic endovenous treatment in post-capillary chronic PH (blind, randomized); conditions: 10 μg/Kg/day for 14 days
Text: The post-capillary PH model was generated by means of the non-restrictive surgical cerclage of the main pulmonary vein in 4 week old piglets (weighing about 10 kg). This vein drains the blood from both lower lung lobes, forming about 80% of the pulmonary mass. With analgesia and general anesthesia and under cardiac monitoring and orotraqueal intubation, the right external jugular vein and common carotid artery were located by means of surgical dissection. The Swan-Ganz catheter was introduced through the venous access to continuously monitor PAP, pulmonary capillary pressure and cardiac output. The arterial route also served to monitor systemic blood pressure during the surgical intervention. By means of right lateral thoracotomy through the fifth intercostal space, non-restrictive cerclage of the main pulmonary vein was performed by means of placing a 5 mm wide polyester band around the vessel fitting the at-rest diameter of the pulmonary venous confluence right before it enters the left atrium. […]
as §3, with “Five measurements were taken, and the mean of 3 measurements was considered after excluding the highest and lowest determinations.” left out
The continuous variables are expressed as mean±SD and qualitative variables are expressed as frequency (%). The comparison between the intervention groups with respect to changes in the variables, calculated as the difference between the post-treatment and pre-treatment value (both in acute PH and chronic PH), was performed by means of the Wilcoxon test. […]

[4] = test system: animals with post-capillary chronic PH; assay: Chronic oral treatment in post-capillary chronic PH (blind, randomized); type: in vivo, pigs; conditions: 50 mg/12 hours orally for 14 days; intermediate analysis (N=4); control group showed an increase of PVRs
Description: as §1
To evaluate the chronic effect of treatment with Mirabegron, a 50 mg tablet was administered orally every 12 hours in all cases. The fixed dose for all the animals was based on doses used in humans for different pathologies (never PH because it has never been tested in this entity), resulting in no adverse effects. The dose used for treating neurogenic bladder is 25 to 50 mg/day, whereas in studies designed to evaluate the effect of this drug in heart failure (see “Beta 3 Agonist Treatment in Heart Failure (Beat-HF) NCT01876433”), the expected initial dose is 25 mg/12 hours, being titrated to a maximum of 150 mg/12 hours. The dose of 50 mg/12 hours intends to be an average dose that can be easily extrapolated to patients with whom an efficacy study could be conducted knowing that the side effect profile is favorable.
Another cohort of animals with post-capillary chronic PH were randomized into chronic therapy for 14 days with Mirabegron (Myrbetrig® 50 mg/12 hours) or placebo. Right heart catheterization was performed pre- and post-treatment.

[5] = 5 μg/Kg endovenous single dose, 20 minutes after administration

## C[C@H](Cc1ccc(OCC(=O)O)cc1)NC[C@H](O)c1cccc(Cl)c1 [BRL 37344, [4-[(2R)-2-[[(2R)-2-(3-clorophenyl)-2-hydroxyethyl]amino]propyl]phenoxy]acetic acid]
Animals with acute PH; placebo 1.0±7.4, p=0.31, not significant
  variation of mean systemic blood pressure: −4.6±8.0
Animals with acute PH; placebo −0.20±0.31, p=0.008
  change of CO (post- minus pre-treatment): 0.62±0.53
Animals with acute PH; placebo −0.4±1.3, p=0.008
  change of PVR (post- minus pre-treatment): −6.5±2.4
Animals with acute PH; placebo −3.0±7.1, p=0.84, not significant
  variation of HR: −4.4±14.1
Animals with acute PH; placebo −3.8±4.2, p=0.008
  change of PAPm (post- minus pre-treatment): −13.0±4.5
[1]; [5]
  increase of oxygen saturation: 3.2%
  increase of the cardiac output: 18%
  reduction of pulmonary vascular resistances: 36%
  reduction of systolic pulmonary pressure: 23%
  reduction of the mean PAP: 30%
[1]; 5 μg/Kg endovenous, 20 minutes, from 3.29±0.9 before, p=0.07
  cardiac output after administration: 3.90 ± 1.5 L/min
[1]; 5 μg/Kg endovenous, 20 minutes, from 10.0±4.3 before, p=0.002
  pulmonary vascular resistances after administration: 6.4±3.2 Wood units
[1]; 5 μg/Kg endovenous, 20 minutes, from 37.6±9.8 before, p<0.001
  mean PAP after administration: 28.8±9.8 mmHg
[1]; 5 μg/Kg endovenous, 20 minutes, from 50.6±15.5 before, p<0.001
  systolic pulmonary pressure after administration: 38.9±9.9 mmHg
[1]; 5 μg/Kg endovenous, 20 minutes, from 83.8±21.1 before, p=0.20, no significant change
  heart rate after administration: 87.8±16.8 bpm
[1]; 5 μg/Kg endovenous, 20 minutes, from 85.7±13.9 before, p=0.11, no significant change
  systemic blood pressure after administration: 79.9±6.9 mmHg
[1]; 5 μg/Kg endovenous, 20 minutes, from 90.88±2.64 before, p=0.001
  oxygen saturation after administration: 93.75±3.01%
[2]; [5]
  changes in heart rate: without significant changes
  changes in systemic blood pressure: without significant changes
  decrease of the mean PAP: 32%
  increase of oxygen saturation: 2%
  reduction of systolic PAP: 25%
[2]; 5 μg/Kg endovenous, 20 minutes, from 29.5±2.1 before
  mean PAP after administration: 20.0±5.7 mmHg
[2]; 5 μg/Kg endovenous, 20 minutes, from 37.5±6.4 before
  systolic PAP after administration: 28.0±8.5 mmHg
[3]; osmotic pump, jugular vein, placebo +1.3±1.2, p=0.042
  change of pulmonary vascular resistances (PVRs) after 14 days: −1.2±1.6 WU
[3]; placebo 3.0±28.2, p=0.49, not significant
  change in heart rate after 14 days: −8.2±15.1 bpm
[3]; placebo 4.3±7.0, p=0.25, not significant
  change in systemic mean blood pressure after 14 days: 2.3±6.9 mmHg

## Nc1nc(CC(=O)Nc2ccc(CCNC[C@H](O)c3ccccc3)cc2)cs1 [Mirabegron]
[4]
  change of PVRs after 14 days: a reduction of PVRs was observed
